Laboratory results: ChEMBL document CHEMBL5058564, “EUbOPEN Chemogenomics Library 2 (Incucyte)” (2022)

How the values were obtained:
Assay type in all cases: toxicity, cell-based
HEK-293T = test: Incucyte cell viability with HEK293T; settings: human, 10 µM, compound concentration 10 uM
Fibroblast = test: Incucyte cell viability with human fibroblast; settings: 10 µM, compound concentration 10 uM
U2OS = test: Incucyte cell viability with U2OS; settings: human, 10 µM, compound concentration 10 uM
[1] = 6 h, replicate number 1, timepoint 6 hours
[2] = 6 h, replicate number 2, timepoint 6 hours
[3] = 12 h, replicate number 1, timepoint 12 hours
[4] = 12 h, replicate number 2, timepoint 12 hours
[5] = 18 h, replicate number 1, timepoint 18 hours
[6] = 18 h, replicate number 2, timepoint 18 hours
[7] = 24 h, replicate number 1, timepoint 24 hours
[8] = 24 h, replicate number 2, timepoint 24 hours
[9] = 0 h, replicate number 1, timepoint 0 hours
[10] = 0 h, replicate number 2, timepoint 0 hours
Further: unitless GR value; below 1 slowed growth and below 0 cell loss.

Row | Structure (SMILES) | Growth Rate (HEK-293T; [1]) | Growth Rate (HEK-293T; [2]) | Growth Rate (HEK-293T; [3]) | Growth Rate (HEK-293T; [4]) | Growth Rate (HEK-293T; [5]) | Growth Rate (HEK-293T; [7]) | Growth Rate (Fibroblast; [9]) | Growth Rate (Fibroblast; [10]) | Growth Rate (Fibroblast; [2]) | Growth Rate (Fibroblast; [4]) | Growth Rate (Fibroblast; [5]) | Growth Rate (U2OS; [10]) | Growth Rate (U2OS; [4]) | Growth Rate (U2OS; [5]) | Growth Rate (U2OS; [6]) | Growth Rate (Fibroblast; [1]) | Growth Rate (Fibroblast; [3]) | Growth Rate (HEK-293T; [10]) | Growth Rate (Fibroblast; [7]) | Growth Rate (U2OS; [8]) | other results
1 | CC(C)c1noc(N2CCC(COc3ccc(-c4ccc(S(C)(=O)=O)cc4)nc3)CC2)n1 [GSK-1292263] | -0.15 | -0.07 | 0.09 | 0.17 | 0.14 | 0.22 | -0.57 | 0.61 | -0.06 | 0.41 | 0.53 | -0.96 | 0.96 | 0.91 | 0.85 |  |  |  |  |  | Growth Rate (HEK-293T; [6]): 0.41; Growth Rate (HEK-293T; [8]): 0.55; Growth Rate (Fibroblast; [6]): 0.76; Growth Rate (U2OS; [9]): -0.92
2 | C=CCN1C[C@H](C(=O)N(CCCN(C)C)C(=O)NCC)C[C@@H]2c3cccc4[nH]cc(c34)C[C@H]21 [CABERGOLINE] | 0.78 | 0.46 | 0.93 |  |  |  | -0.05 | 0.7 | 1 |  |  | -1 |  |  |  | 0.44 | 0.91 |  |  |  | 
3 | C[C@H]1[C@H](OC(=O)CCC(=O)O)O[C@@H]2O[C@@]3(C)CC[C@H]4[C@H](C)CC[C@@H]1[C@@]24OO3 [ARTESUNATE] | 0.56 |  | -0.23 | -0.1 | -0.07 | -0.08 | 0.98 | 0.19 |  | 0.75 | -0.31 | 0.07 | 0.85 | 0.86 | 0.75 |  | 0.22 | 0.58 | -0.42 | 0.81 | Growth Rate (HEK-293T; [6]): -0.18; Growth Rate (HEK-293T; [8]): -0.16; Growth Rate (Fibroblast; [6]): 0.04; Growth Rate (Fibroblast; [8]): -0.06; Growth Rate (U2OS; [9]): 0.12; Growth Rate (U2OS; [1]): 0.66; Growth Rate (U2OS; [2]): 0.72; Growth Rate (U2OS; [7]): 0.98
4 | N=C(N)NCCC[C@@H](NC(=O)C(c1ccccc1)c1ccccc1)C(=O)NCc1ccc(CNC(N)=O)cc1.O=C(O)C(F)(F)F.O=C(O)C(F)(F)F | 1 | 0.41 | 0.8 |  | 0.83 | 0.98 | -0.19 |  | 0.45 | 0.67 | 0.41 | 0.75 | 0.93 | 0.59 | 0.96 | 0.44 | 0.58 |  | 0.52 | 0.83 | Growth Rate (U2OS; [1]): 0.1; Growth Rate (U2OS; [2]): 0.61; Growth Rate (U2OS; [3]): 0.58; Growth Rate (U2OS; [7]): 0.82
5 | O=C(NCCNCC(O)COc1ccc(O)cc1)N1CCOCC1.O=C(NCCNCC(O)COc1ccc(O)cc1)N1CCOCC1.O=C(O)/C=C/C(=O)O (stereo unspecified) [XAMOTEROL FUMARATE] |  | 0.64 |  | 0.95 |  |  | -0.24 | -0.01 |  |  |  | -1 |  |  |  |  |  |  |  |  | Growth Rate (HEK-293T; [9]): 0.82; Growth Rate (U2OS; [9]): 0.31
6 | O=C(O)c1nc2ccccc2c2[nH]c3c(I)cccc3c12 |  |  |  | 0.75 |  |  | -0.96 | 0.92 |  |  |  | -1 | 0.85 | 0.93 | 0.85 |  |  | 0.84 |  | 0.91 | Growth Rate (HEK-293T; [9]): 0.01; Growth Rate (HEK-293T; [6]): 0.78; Growth Rate (U2OS; [1]): 0.56
7 | Cc1ccc(Cn2nc(C(=O)N[C@@H]3C(C)(C)[C@@H]4CC[C@@]3(C)C4)cc2-c2ccc(Cl)c(C)c2)cc1 |  | 0.75 |  | 0.96 | 0.94 | 0.95 |  |  | 0.01 | 0.14 | 0.78 |  | 0.74 |  | 0.82 | 0.46 | 0.76 |  | 0.72 | 0.74 | Growth Rate (U2OS; [9]): -1; Growth Rate (U2OS; [2]): 0.89; Growth Rate (U2OS; [3]): 0.92; Growth Rate (U2OS; [7]): 0.86
8 | Cc1cc(Nc2ncc(Cl)c(Nc3ccccc3S(=O)(=O)C(C)C)n2)c(OC(C)C)cc1C1CCNCC1 [CERITINIB] | -0.87 | -0.92 | -0.62 | -0.66 | -0.45 | -0.35 |  |  | -0.97 | -0.78 | -0.95 | -0.57 | -0.74 | -0.66 | -0.52 | -1 | -0.99 |  | -0.88 | -0.42 | Growth Rate (HEK-293T; [6]): -0.48; Growth Rate (HEK-293T; [8]): -0.38; Growth Rate (Fibroblast; [6]): -0.6; Growth Rate (Fibroblast; [8]): -0.52; Growth Rate (U2OS; [9]): -0.86; Growth Rate (U2OS; [1]): -0.94; Growth Rate (U2OS; [2]): -0.91; Growth Rate (U2OS; [3]): -0.82; Growth Rate (U2OS; [7]): -0.58
9 | CCc1ccccc1C(=O)Nc1n[nH]c2c(C)c(F)c(C3C(C#N)=C(C)N(C)C(C)=C3C#N)cc12 [BAY-3827] | 0.43 |  | 0.35 |  | 0.5 | 0.55 | 0.51 | -0.4 |  |  | 0.79 | 0.74 |  |  |  | 0.12 | 0.64 | -1 | 0.56 | 0.87 | 
10 | Cc1onc(-c2ccccc2Cl)c1C(=O)N(C)c1ccc(Cl)cc1 |  |  |  |  |  |  | -0.53 | 0.86 |  |  |  |  | 0.67 |  | 0.85 |  |  | 0.62 |  | 0.96 | Growth Rate (U2OS; [2]): 0.56
11 | N#Cc1cc(F)cc(-c2nc(-c3ccc(F)cn3)no2)c1 |  |  |  |  |  |  |  | 0.68 |  |  | 0.84 | -0.87 | 0.86 | 0.57 |  | -0.02 | 0.63 | 0.21 | 0.6 |  | Growth Rate (HEK-293T; [9]): 0.85; Growth Rate (U2OS; [1]): -0.32; Growth Rate (U2OS; [2]): 0.62; Growth Rate (U2OS; [3]): 0.46; Growth Rate (U2OS; [7]): 0.65
12 | O=C1c2c(Br)c(Br)c(Br)c(Br)c2C(=O)N1c1ncc[nH]1 |  | 0.45 | 0.51 |  | 0.67 | 0.91 | -1 | 0.94 | 0.37 |  | 0.62 | -1 | 0.89 | 0.89 | 1 |  | 0.69 | 0.87 | 0.65 |  | Growth Rate (HEK-293T; [9]): 0.24; Growth Rate (U2OS; [1]): 0.46; Growth Rate (U2OS; [7]): 0.98
13 | COC(c1ccccc1)(c1ccccc1)[C@H](Oc1nc(C)cc(C)n1)C(=O)O [AMBRISENTAN] |  |  | 0.96 |  | 0.99 | 0.97 |  | 0.74 | 0.53 | 0.6 |  | -1 |  |  | 0.96 | 0.41 | 0.97 | 0.79 |  |  | Growth Rate (U2OS; [9]): -0.03
14 | Cc1cc(Cn2cnc3c2C[C@@H](C(=O)O)N(C(=O)C(c2ccccc2)c2ccccc2)C3)ccc1N(C)C | 0.56 | 0.61 | 0.72 | 0.75 | 0.7 | 0.85 | 0.15 |  |  |  | 0.53 | 0.34 |  |  |  | 0.22 |  |  | 0.39 | 0.97 | Growth Rate (HEK-293T; [6]): 0.99; Growth Rate (Fibroblast; [6]): 0.97; Growth Rate (Fibroblast; [8]): 0.88
15 | CCOC(=O)c1c(/C(C#N)=C\N)c2ccc(Cl)c(Cl)c2n1C | 0.56 | 0.47 |  | 0.77 | 0.9 | 0.99 | 0.69 |  |  | 0.53 | 0.47 |  |  | 0.5 |  |  | 0.64 | 0.59 | 0.29 |  | Growth Rate (HEK-293T; [9]): 0.5; Growth Rate (HEK-293T; [6]): 0.7; Growth Rate (HEK-293T; [8]): 0.93; Growth Rate (Fibroblast; [6]): 0.72; Growth Rate (Fibroblast; [8]): 0.73; Growth Rate (U2OS; [9]): -0.21; Growth Rate (U2OS; [1]): 0.29; Growth Rate (U2OS; [3]): 0.64; Growth Rate (U2OS; [7]): 0.73
